Reference: patent US20050107386A1, “Methods of treating diseases and disorders by targeting multiple kinases” (priority 2003, published 2005)

How the values were obtained:
Type in all cases: biochemical
CHK1(h) = target: T1, CHK1(h) (Homo sapiens, UniProt O14757); experiment: CHK1(h) kinase assay; settings: 3 μM; percent of control kinase activity
T1 sequence (O14757 1-476): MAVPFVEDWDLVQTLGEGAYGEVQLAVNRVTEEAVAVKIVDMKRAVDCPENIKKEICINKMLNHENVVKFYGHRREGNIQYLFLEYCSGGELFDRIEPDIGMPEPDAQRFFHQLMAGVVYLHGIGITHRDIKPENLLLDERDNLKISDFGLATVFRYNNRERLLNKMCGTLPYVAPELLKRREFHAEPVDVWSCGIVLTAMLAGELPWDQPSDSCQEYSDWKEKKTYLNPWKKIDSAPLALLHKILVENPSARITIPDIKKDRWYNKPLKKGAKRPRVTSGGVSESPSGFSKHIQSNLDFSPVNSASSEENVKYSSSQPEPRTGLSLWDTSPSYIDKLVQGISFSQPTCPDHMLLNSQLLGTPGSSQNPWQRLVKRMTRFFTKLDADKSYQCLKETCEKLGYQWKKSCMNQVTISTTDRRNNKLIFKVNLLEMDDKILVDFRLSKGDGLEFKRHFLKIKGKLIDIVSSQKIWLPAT
Procedure: (§1) Six compounds (presumptive single agents) were tested against a panel of 50 kinases. The results are presented in Table 2; numbers for each kinase indicate the percent of control kinase activity in the presence of a 3μM concentration of the indicated agent.
(§2) Agents that target two or more different kinases are useful in the methods of the invention as described elsewhere herein. Such compounds may be identified, and their effect on certain kinases may be identified, using the assays briefly described below in Examples 4-83. Each of these assays was carried out as described in Davies et al., Biochem. J., 351:95-105 (2000). All assays were carried out at 10 μM ATP unless otherwise noted.
(§3) In a final reaction volume of 25 μl, CHK1(h) (5-10 mU) is incubated with 8 mM MOPS pH 7.0,0.2 mM EDTA, 200 μM […] (SEQ ID NO:5), 10 mM MgAcetate and [γ-^33P-ATP] (specific activity approx. 500 cpm/pmol, concentration as required). The reaction is initiated by the addition of Mg^2+ [γ-^33P-ATP]. After incubation for 40 minutes at room temperature, the reaction is stopped by the addition of 5 μl of a 3% phosphoric acid solution. 10 μl of the reaction is then spotted onto a P30 filtermat and washed three times for 5 minutes in 75 mM phosphoric acid and once in methanol prior to drying and scintillation counting.

Yes(h) = Yes(h) (Homo sapiens, UniProt P07947); experiment: Yes(h) kinase assay; settings: for Inhibitory activity (% of control), Yes(h): 3 μM, percent of control kinase activity
Yes(h), sequence (P07947 whole entry): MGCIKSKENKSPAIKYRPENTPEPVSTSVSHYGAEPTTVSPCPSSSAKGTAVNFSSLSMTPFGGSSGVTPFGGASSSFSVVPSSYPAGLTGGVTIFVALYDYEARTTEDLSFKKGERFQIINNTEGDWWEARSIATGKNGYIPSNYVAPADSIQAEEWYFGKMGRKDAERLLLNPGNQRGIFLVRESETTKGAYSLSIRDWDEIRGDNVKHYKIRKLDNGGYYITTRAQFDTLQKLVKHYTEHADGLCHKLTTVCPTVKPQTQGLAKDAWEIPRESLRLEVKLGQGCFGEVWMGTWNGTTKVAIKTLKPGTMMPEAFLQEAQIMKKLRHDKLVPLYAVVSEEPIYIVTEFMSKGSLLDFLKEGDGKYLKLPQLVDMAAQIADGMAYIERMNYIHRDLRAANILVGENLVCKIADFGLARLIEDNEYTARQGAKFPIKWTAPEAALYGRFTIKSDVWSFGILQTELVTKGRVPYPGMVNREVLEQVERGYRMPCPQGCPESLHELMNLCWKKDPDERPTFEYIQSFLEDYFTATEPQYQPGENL
Procedure: as §1, §2
(§4) In a final reaction volume of 25 μl, Yes(h) (5-10 mU) is incubated with 8 mM MOPS pH 7.0, 0.2 mM EDTA, 0.1 mg/ml poly(Glu, Tyr) 4:1, 10 mM MgAcetate and [γ-^33P-ATP] (Specific activity approx. 500 cpm/pmol, concentration as required). The reaction is initiated by the addition of Mg^2+ [γ-^33P-ATP]. After incubation for 40 minutes at room temperature, the reaction is stopped by the addition of 5 μl of a 3% phosphoric acid solution. 10 μl of the reaction is then spotted onto a Filtermat A and washed three times for 5 minutes in 75 mM phosphoric acid and once in methanol prior to drying and scintillation counting.

Rsk2(h) = Rsk2(h) (Homo sapiens, UniProt P51812); experiment: Rsk2(h) kinase assay; settings: 3 μM; percent of control kinase activity
Rsk2(h), sequence (P51812 whole entry): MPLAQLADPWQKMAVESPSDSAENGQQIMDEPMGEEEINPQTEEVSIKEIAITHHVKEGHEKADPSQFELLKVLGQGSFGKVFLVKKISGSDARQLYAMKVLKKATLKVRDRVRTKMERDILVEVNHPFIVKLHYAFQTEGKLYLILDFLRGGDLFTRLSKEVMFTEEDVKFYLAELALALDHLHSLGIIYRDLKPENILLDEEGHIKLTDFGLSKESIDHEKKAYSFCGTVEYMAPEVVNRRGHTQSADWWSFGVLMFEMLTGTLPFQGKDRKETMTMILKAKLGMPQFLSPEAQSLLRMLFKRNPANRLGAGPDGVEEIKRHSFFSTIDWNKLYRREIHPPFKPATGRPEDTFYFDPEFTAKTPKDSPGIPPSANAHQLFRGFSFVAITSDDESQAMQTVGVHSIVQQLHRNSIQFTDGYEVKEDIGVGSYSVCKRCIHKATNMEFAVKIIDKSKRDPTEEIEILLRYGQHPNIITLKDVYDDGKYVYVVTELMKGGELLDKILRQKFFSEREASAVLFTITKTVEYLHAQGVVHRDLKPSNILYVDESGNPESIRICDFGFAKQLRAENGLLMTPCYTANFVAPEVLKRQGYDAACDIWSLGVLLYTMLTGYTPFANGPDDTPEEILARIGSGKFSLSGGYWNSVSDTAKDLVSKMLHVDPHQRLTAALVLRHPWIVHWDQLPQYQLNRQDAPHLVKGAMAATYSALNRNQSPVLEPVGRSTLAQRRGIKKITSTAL
Procedure: as §1, §2
as §3, with “Rsk2(h)” for “CHK1(h)”, “7.0, 0.2” for “7.0,0.2”, “30” for “200”, “NO:11),” for “NO:5),”

Rsk1(h) = Rsk1(h) (Homo sapiens, UniProt Q15418); experiment: Rsk1(h) kinase assay; settings: for Inhibitory activity (% of control), Rsk1(h): 3 μM, percent of control kinase activity
Rsk1(h), sequence (Q15418 whole entry): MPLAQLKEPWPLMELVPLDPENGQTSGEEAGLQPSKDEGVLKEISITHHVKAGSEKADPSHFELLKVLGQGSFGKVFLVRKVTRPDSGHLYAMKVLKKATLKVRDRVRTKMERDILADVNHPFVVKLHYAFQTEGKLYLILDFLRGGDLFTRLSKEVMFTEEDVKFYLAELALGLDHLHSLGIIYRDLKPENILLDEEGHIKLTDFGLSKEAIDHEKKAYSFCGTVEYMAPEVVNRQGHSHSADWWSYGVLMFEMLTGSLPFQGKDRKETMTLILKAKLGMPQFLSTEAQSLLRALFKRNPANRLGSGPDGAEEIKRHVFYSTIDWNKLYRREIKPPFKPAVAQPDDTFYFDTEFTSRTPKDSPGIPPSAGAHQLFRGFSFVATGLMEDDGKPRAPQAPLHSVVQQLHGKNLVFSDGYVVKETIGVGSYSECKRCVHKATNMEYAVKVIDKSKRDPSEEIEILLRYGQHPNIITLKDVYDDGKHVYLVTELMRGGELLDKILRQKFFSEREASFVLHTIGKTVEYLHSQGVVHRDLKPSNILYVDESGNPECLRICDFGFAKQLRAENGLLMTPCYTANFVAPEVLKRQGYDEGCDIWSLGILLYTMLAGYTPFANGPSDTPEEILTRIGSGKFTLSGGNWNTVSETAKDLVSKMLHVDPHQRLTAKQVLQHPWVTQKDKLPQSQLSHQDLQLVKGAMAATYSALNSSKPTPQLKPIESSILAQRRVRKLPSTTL

Lck(h) = Lck(h) (Homo sapiens, UniProt P06239); experiment: Lck(h) kinase assay; settings: 3 μM; percent of control kinase activity
Lck(h), sequence (P06239 whole entry): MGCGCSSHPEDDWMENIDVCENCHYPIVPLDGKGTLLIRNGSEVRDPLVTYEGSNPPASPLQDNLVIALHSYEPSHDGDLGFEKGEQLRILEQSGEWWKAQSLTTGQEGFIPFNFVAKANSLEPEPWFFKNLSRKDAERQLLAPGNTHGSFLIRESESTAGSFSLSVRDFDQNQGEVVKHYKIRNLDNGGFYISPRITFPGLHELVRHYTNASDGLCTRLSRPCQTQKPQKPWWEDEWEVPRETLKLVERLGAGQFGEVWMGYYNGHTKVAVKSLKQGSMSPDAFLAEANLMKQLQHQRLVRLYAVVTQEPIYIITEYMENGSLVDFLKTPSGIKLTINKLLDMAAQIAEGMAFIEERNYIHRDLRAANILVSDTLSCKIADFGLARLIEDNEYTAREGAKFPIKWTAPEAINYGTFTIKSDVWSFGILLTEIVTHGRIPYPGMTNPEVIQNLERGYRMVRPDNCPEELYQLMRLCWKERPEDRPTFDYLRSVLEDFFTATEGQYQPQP
Procedure: as §1, §2
In a final reaction volume of 25 μl, Lck(h) (5-10 mU) is incubated with 50 mM Tris pH 7.5, 0.1 mM EGTA, 0.1 mM NaVanadate, 250 μM […] (Cdc2 peptide; SEQ ID NO:7), 10 mM MgAcetate and [γ-^33P-ATP] (specific activity approx. 500 cpm/pmol, concentration as required). The reaction is initiated by the addition of Mg^2+ [γ-^33P-ATP]. After incubation for 40 minutes at room temperature, the reaction is stopped by the addition of 5 μl of a 3% phosphoric acid solution. 10 μl of the reaction is then spotted onto a P30 filtermat and washed three times for 5 minutes in 75 mM phosphoric acid and once in methanol prior to drying and scintillation counting.

MSK1(h) = MSK1(h) (Homo sapiens, UniProt O75582); experiment: MSK1(h) kinase assay; settings: 3 μM; percent of control kinase activity
MSK1(h), sequence (O75582 whole entry): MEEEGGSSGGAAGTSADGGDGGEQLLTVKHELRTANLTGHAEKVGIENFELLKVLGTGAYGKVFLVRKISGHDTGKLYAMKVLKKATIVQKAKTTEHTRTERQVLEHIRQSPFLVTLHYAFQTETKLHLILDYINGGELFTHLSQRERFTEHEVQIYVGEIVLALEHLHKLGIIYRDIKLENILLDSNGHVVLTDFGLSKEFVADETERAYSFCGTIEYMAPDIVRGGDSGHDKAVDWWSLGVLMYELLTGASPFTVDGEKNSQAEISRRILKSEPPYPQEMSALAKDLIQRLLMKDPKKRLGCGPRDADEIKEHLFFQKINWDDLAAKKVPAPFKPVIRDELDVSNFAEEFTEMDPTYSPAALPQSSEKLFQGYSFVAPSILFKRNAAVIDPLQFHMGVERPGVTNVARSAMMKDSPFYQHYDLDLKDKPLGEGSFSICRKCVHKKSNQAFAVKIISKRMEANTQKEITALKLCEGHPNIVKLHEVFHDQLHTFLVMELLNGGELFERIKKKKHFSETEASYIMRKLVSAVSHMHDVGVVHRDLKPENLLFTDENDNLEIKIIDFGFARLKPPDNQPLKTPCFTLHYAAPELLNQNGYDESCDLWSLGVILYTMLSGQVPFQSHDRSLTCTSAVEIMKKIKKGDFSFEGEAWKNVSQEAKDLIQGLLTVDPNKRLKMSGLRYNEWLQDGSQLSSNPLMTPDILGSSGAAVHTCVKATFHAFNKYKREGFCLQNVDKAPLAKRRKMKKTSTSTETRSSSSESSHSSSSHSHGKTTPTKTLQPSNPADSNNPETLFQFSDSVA
Procedure: as §1, §2
as §3, with “MSK1 (h)” for “CHK1(h)”, “7.0, 0.2” for “7.0,0.2”, “30” for “200”, “NO:2),” for “NO:5),”

CDK1/cyclinB(h) = CDK1/cyclinB(h) (Homo sapiens, UniProt P06493); experiment: CDK1/cyclinB(h) kinase assay; settings: for Inhibitory activity (% of control), CDK1/cyclinB(h): 3 μM, percent of control kinase activity
CDK1/cyclinB(h), sequence (P06493 whole entry): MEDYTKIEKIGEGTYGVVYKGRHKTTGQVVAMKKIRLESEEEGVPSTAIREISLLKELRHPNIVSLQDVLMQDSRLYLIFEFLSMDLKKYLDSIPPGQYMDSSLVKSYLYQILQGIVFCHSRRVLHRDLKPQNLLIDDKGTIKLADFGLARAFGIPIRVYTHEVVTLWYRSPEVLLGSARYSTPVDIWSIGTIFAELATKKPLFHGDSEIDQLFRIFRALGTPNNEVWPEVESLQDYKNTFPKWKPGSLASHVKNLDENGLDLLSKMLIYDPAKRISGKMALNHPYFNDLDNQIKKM
CDK1/cyclinB(h), sequence (P14635 whole entry partner): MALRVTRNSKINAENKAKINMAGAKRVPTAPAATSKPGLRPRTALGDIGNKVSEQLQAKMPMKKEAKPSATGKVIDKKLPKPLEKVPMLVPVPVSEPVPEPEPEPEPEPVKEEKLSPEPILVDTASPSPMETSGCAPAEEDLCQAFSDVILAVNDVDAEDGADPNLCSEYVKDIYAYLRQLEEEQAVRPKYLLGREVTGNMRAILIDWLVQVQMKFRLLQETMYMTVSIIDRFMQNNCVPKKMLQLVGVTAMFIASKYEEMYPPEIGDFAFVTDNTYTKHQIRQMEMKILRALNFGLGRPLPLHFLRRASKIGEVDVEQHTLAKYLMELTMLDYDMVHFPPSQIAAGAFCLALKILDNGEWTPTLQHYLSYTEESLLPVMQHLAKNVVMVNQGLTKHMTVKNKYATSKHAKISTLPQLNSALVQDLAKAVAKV
Procedure: as §1, §2
as §4, with “CDK1/cyclinB (h)” for “Yes(h)”, “histone H1,” for “poly(Glu, Tyr) 4:1,”, “[γ-^33p-ATP] (specific” for “[γ-^33P-ATP] (Specific”, “[γ-33 P-ATP].” for “[γ-^33P-ATP].”, “P30 filtermat” for “Filtermat A”

Inhibitory activity (% of control), CHK1(h) (CHK1(h)) | Inhibitory activity (% of control), Yes(h) (Yes(h)) | Inhibitory activity (% of control), Rsk2(h) (Rsk2(h)) | Inhibitory activity (% of control), Rsk1(h) (Rsk1(h)) | Inhibitory activity (% of control), Lck(h) (Lck(h)) | Inhibitory activity (% of control), MSK1(h) (MSK1(h)) | Inhibitory activity (% of control), CDK1/cyclinB(h) (CDK1/cyclinB(h)) | inhibitory activity against Yes, in words (Yes(h); summary of Table 2) | inhibitory activity against Rsk1, in words (Rsk1(h); summary of Table 2) | inhibitory activity against CDK1, in words (CDK1/cyclinB(h); summary of Table 2) | Structure (SMILES)
12 % of control | −3 % of control | 5 % of control | 3 % of control | 5 % of control | 45 % of control | 2 % of control | – | – | – | CC(C)Cc1nc(-c2ccc3[nH]nc(-c4ccc5cc(OCCN6CCCC6)ccc5c4)c3c2)n[nH]1 [CC002, 5-(5-Isobutyl-1H-[1,2,4]Triazol-3-yl)-3-[6-(2-Pyrrolidin-1-yl-Ethoxy)-Naphthalen-2-yl]-1H-Indazole]
70 % of control | 57 % of control | 31 % of control | 43 % of control | 43 % of control | 72 % of control | 3 % of control | – | – | – | Fc1ccc(-c2n[nH]c3ccc(-c4n[nH]c(C5CCCC5)n4)cc23)cc1 [CC006, 5-(5-Cyclopentyl-1H-[1,2,4]triazol-3-yl)-3-(4-fluoro-phenyl)-1H-indazole, reference compound]
6 % of control | 0 % of control | 3 % of control | 2 % of control | 6 % of control | 25 % of control | 1 % of control | – | – | – | CCN1CCC[C@H]1COc1ccc2cc(-c3n[nH]c4ccc(-c5nc(CC(C)(C)C)n[nH]5)cc34)ccc2c1 [CC005, 2-[((2s)-1-ethylpyrrolidin-2-yl)methoxy]-6-{5-[3-(2,2-Dimethylpropyl)(1H-1,2,4,-triazol-5-yl)](1H-indazol-3-yl)}naphthalene]
64 % of control | 24 % of control | 34 % of control | 29 % of control | 57 % of control | 76 % of control | 1 % of control | somewhat less inhibitory activity | good inhibitory activity | good inhibitory activity | CC(C)(C)Cc1nc(-c2ccc3[nH]nc(-c4ccc5cc(OCc6ccccn6)ccc5c4)c3c2)n[nH]1 [CC004, 5-[5-(2,2-Dimethyl-propyl)-1H-[1,2,4]triazol-3-yl]-3-[6-(pyridine-2-ylmethoxy)-naphthalen-2-yl]-1H-indazole]
90 % of control | 50 % of control | 45 % of control | 51 % of control | 56 % of control | 89 % of control | 26 % of control | – | – | – | O=C(NC1CCCC1)c1cccc(-c2n[nH]c3ccc(-c4nc[nH]n4)cc23)c1 [CC007, 3-(5-(1H-1,2,4-triazol-3-yl)(1H-indazol-3-yl))phenyl-N-cyclopentylcarboxamide, reference compound]

Structure (SMILES) | Inhibitory activity (% of control), CHK1(h) (CHK1(h)) | Inhibitory activity (% of control), Yes(h) (Yes(h)) | Inhibitory activity (% of control), Rsk2(h) (Rsk2(h)) | Inhibitory activity (% of control), Rsk1(h) (Rsk1(h)) | Inhibitory activity (% of control), Lck(h) (Lck(h)) | Inhibitory activity (% of control), MSK1(h) (MSK1(h)) | Inhibitory activity (% of control), CDK1/cyclinB(h) (CDK1/cyclinB(h)) | inhibitory activity against Yes, in words (Yes(h); summary of Table 2) | inhibitory activity against Rsk1, in words (Rsk1(h); summary of Table 2) | inhibitory activity against CDK1, in words (CDK1/cyclinB(h); summary of Table 2)
COc1ccc2cc(-c3n[nH]c4ccc(-c5n[nH]c(CN6CCOCC6)n5)cc34)ccc2c1 [CC001, 3-(6-Methoxynaphthalen-2-yl)-5-(5-Morpholin-4-Ylmethyl-1H-[1,2,4]Triazol-3-yl)-1H-Indazole] | 36 % of control | 2 % of control | 6 % of control | 4 % of control | 27 % of control | 62 % of control | 2 % of control | – | – | –
